Patent publication US7982021B2, “Nucleic acid molecules encoding emission ratiometric indicators of phosphoinositides” (The Johns Hopkins University, priority 2006, dated 2011)

Test system: PIP3 and PI(3,4)P2
Assay: FRET emission ratio imaging of InPAkt reporters in NIH3T3 cells upon growth factor stimulation
Type: cell-based
Settings: for t1/2 of InPAkt response produced by the growth factor / time to reach plateau of InPAkt response produced by the growth factor / InPAkt emission ratio increase produced by the growth factor: NIH3T3 cells expressing InPAkt; for t1/2 of InPAkt response produced by the growth factor / time to reach plateau of InPAkt response produced by the growth factor: single ligand; for InPAkt emission ratio increase produced by the growth factor: single ligand: 50 ng/ml PDGF, 50 nM IGF-1 or 100 ng/ml insulin; for InPAkt emission ratio increase, sequential stimulation: agonists applied sequentially: insulin; for InPAkt emission ratio increase, sequential stimulation / t1/2 of InPAkt response, sequential stimulation / time of InPAkt emission ratio increase, sequential stimulation: then IGF-1, then PDGF; for t1/2 of InPAkt response, sequential stimulation / time of InPAkt emission ratio increase, sequential stimulation: insulin
Method: Cell Culture. HEK293 and NIH3T3 cells were plated onto sterilized glass coverslips in 35-mm dishes and grown to 50-90% confluency in DMEM (10% FBS) at 37° C. with 5% CO2. Cells were transfected with FUGENE®-6 (Roche), then serum starved for 24-36 h before imaging. Colocalization studies were performed by incubating transfected cells with Hoechst 33342 cell-permeable dyes (Molecular Probes) for staining nucleic acids.
Imaging. Cells were washed twice with Hanks' balanced salt solution buffer and maintained in the dark at room temperature with the addition of 50 ng/ml rat PDGF (Sigma), 100 ng/ml bovine insulin (Calbiochem), 50 nM IGF-1 (Sigma), or 20 μM LY294002 (Sigma) as described. Cells were imaged on a Zeiss Axiovert 200M microscope with a cooled CCD camera MicroMAX BFT512 (Roper Scientific, Trenton, N.J.) controlled by METAFLUOR 6.2 software (Universal Imaging, Downingtown, Pa.). Dual emission ratio imaging used a 420DF20 excitation filter, a 450DRLP dichroic mirror, and two emission filters (475DF40 for CFP and 535DF25 for YFP) alternated by a filter-changer Lambda 10-2 (Sutter Instruments, Novato, Calif.). Exposure time was 50-500 ms, and images were taken every 15-30 s. Fluorescence images were background-corrected by subtracting autofluorescence intensity of untransfected cells (or background with no cells) from the emission intensities of cells expressing fluorescent reporters. The ratios of yellow-to-cyan emissions were then calculated at different time points.
We next checked the ability of this chimera to detect changes in 3′ PIs in response to agonist stimulation. NIH3T3 cells expressing this construct were serum-starved then stimulated with 50 ng/ml platelet-derived growth factor (PDGF). Stimulation of endogenous PDGF receptor (PDGFR) generated a FRET increase, resulting in an increase in the ratio of yellow-to-cyan emissions (FIGS. 1D, 1E), which was detectable within several seconds and reached a plateau of 25.4±3.7% [average±std] […] The FRET change occurred in the plasma membrane and was accompanied by the translocation of the reporter (FIG. 1D), reiterating that 3′ PIs are mainly produced at the plasma membrane (22). To verify that the FRET response is caused by binding of PIP3 and PI(3,4)P2, we generated a variant of the reporter in which two critical residues in the PH domain, Arg23 and Arg25, which mainly contribute to D-3 phosphate recognition (20), are mutated.

[1] = NIH3T3 cells, PDGF first, followed by IGF-1

## IGF-1: insulin-like growth factor 1 (Sigma)
  t1/2 of InPAkt response produced by the growth factor: 5.4 ± 0.4 min
  time to reach plateau of InPAkt response produced by the growth factor: 10 to 12 min
  InPAkt emission ratio increase produced by the growth factor: 6.5±0.8%
[1]
  InPAkt emission ratio response, reversed order of ligand addition: not enhanced
NIH3T3 cells
  InPAkt emission ratio increase, sequential stimulation: 6.8±0.9%
  t1/2 of InPAkt response, sequential stimulation: 5.2 ± 0.1 min
  time of InPAkt emission ratio increase, sequential stimulation: 10 to 12 min

## PDGF
  t1/2 of InPAkt response produced by the growth factor: 3.45 ± 0.65 min
  time to reach plateau of InPAkt response produced by the growth factor: 5 to 9 min
  InPAkt emission ratio increase produced by the growth factor: 25.4±3.7%
[1]
  InPAkt emission ratio response, reversed order of ligand addition: 24.2 ± 1.5%
  t1/2 of InPAkt response, reversed order of ligand addition: 3.9 ± 0.2 min
  time of InPAkt response, reversed order of ligand addition: 7 to 9 min
NIH3T3 cells
  InPAkt emission ratio increase, sequential stimulation: 14.6±1.4%
  t1/2 of InPAkt response, sequential stimulation: 3.2 ± 0.2 min
  time of InPAkt emission ratio increase, sequential stimulation: 6 to 7 min

## insulin: bovine insulin (Calbiochem)
  InPAkt emission ratio increase produced by the growth factor: did not generate any discernable response
NIH3T3 cells
  InPAkt emission ratio increase, sequential stimulation: did not generate any appreciable change
